According to patent US12161653B2, “Treatment of submental fat” (Allergan Sales, LLC, priority 2011, dated 2024):

Key:
[1] = system: caudal lateral fat pads; experiment: Fat pad necrosis in Zucker rats after a single injection; format: in vivo; conditions: for effectiveness: Zucker rats and clinical studies
Protocol: In the rats study, 8 rats received a single injection into the caudal lateral fat pads of 2.5 mL deoxycholic acid at 1%, 0.5%, 0.25%, or 0.1% concentrations, or 2.5 mL vehicle (0.9% benzyl alcohol in water).

[2] = system: subcutaneous abdominal tissue; experiment: Clinical trial: histological changes, efficacy and safety by concentration; format: in vivo, human
Protocol: These findings are consistent with the increased intensity of adverse effects at the higher concentrations and larger volumes administered (0.4 mL/injection) in clinical trials. […] Concentrations at or below 0.25% were not tested, as they are at or below the concentration necessary to form micelles. The formation of micelles is essential for lipolytic activity.
(§1) A total of 274 subjects participated in 6 Phase ½ clinical studies that were conducted with SDI. Of these, 3 studies (n=179) evaluated SDI for the treatment of submental fat (SMF). Two studies evaluated SDI for the treatment of superficial lipoma. One study (SDI-08-10) evaluated the histological effects of SDI in subcutaneous abdominal tissue in subjects scheduled to undergo abdominoplasty.

[3] = In vitro micelle formation; format: physicochemical
Excerpt: When secreted into the small intestine, bile acids form micelles with dietary fats to aid in lipolysis and lipid absorption.

[4] = system: submental fat (SMF) deposits; experiment: Example 2 placebo-controlled clinical study, SMF rating scale; format: in vivo, human; conditions: for change from baseline at week 16 compared to placebo in SMF rating scale score: significance (ANCOVA): every 4 weeks, up to 4 treatments
Protocol: A clinical study was conducted to evaluate the effectiveness of various doses of sodium deoxycholate in removing undesired submental fat (SMF) deposits. A multicenter, randomized, double-blind, placebo-controlled, parallel-group comparison of 3 concentrations of sodium deoxycholate (0.5, 1.0, and 2.0 percent w/v) in sterile water with 0.9% benzyl alcohol and placebo was conducted to determine the efficacy of reduction in SMF deposits. Placebo injection consisted of sterile water with 0.9% benzyl alcohol.
All subjects were to have up to 4 treatment sessions at intervals of no less than 4 weeks (±3 days) between treatments.
Eligible subjects were concurrently randomized into one of the following groups: • Placebo injected every 4 weeks for up to 4 treatments • 0.5% w/v sodium deoxycholate injected every 4 weeks for up to 4 treatments • 1.0% w/v sodium deoxycholate injected every 4 weeks for up to 4 treatments • 2.0% w/v sodium deoxycholate injected every 4 weeks for up to 4 treatments
85 subjects were randomized: 21 subjects to the 0.5% w/v sodium deoxycholate group, 20 subjects to the 1.0% w/v sodium deoxycholate group; 22 subjects to the 2.0% w/v sodium deoxycholate (DCA) group; and 22 subjects to the placebo group. 73 subjects completed the study.
Subject selection included males or non-pregnant, non-lactating females aged 25 to 65 years, inclusive, on the date of randomization, with SMF that was considered undesirable by the subject and graded by the investigator as 2 or 3 using the SMF rating scale, and a history of maintenance of a stable body weight, in the judgment of the investigator, for at least 6 months before randomization.

[5] = Phase 1/2 clinical studies with SDI: safety; format: in vivo, human
Protocol: as §1
(§2) The most commonly observed adverse events associated with the treatment area include pain, erythema, induration, swelling, bruising, and numbness. Less frequently, pruritus and paresthesia have been reported. […] The pharmacokinetics of SDI is linear, illustrating the predictable overall exposure. Plasma concentrations were transient with peak concentrations observed at approximately 15 to 30 minutes, returning to endogenous deoxycholate levels within 24 hours after dosing.

[6] = Pharmacokinetics of SDI in clinical studies (plasma deoxycholate); format: in vivo; conditions: human
Protocol: as §2

[7] = system: submental fat; experiment: Earlier clinical studies of SDI for submental fat (SMFRS, SSRS); format: in vivo, human
Protocol: as §1
The SMF scale used to assess efficacy in clinical studies with SDI has been validated and shown to be reliable. […] The expected improvement from treatment with SDI is consistent with what patients who desire aesthetic changes would find satisfactory.

[8] = system: submental fat (SMF); experiment: Example 3 phase II placebo-controlled study (CR-SMFRS, PR-SMFRS, PR-SMFIS, MRI, other scales); format: in vivo, human; conditions: for number of patients having at least 1-point improvement (CR-SMFRS) vs placebo group: week 16, 24 and 32
Protocol: A clinical study was conducted to evaluate the effectiveness of various doses of sodium deoxycholate in removing undesired submental fat (SMF) deposits. This clinical study was multicenter, randomized, double-blind, placebo-controlled study of sodium deoxycholate injection (“SDI” or alternatively “ATX-101”) versus placebo for the reduction of localized subcutaneous fat in the submental area (SMF) using magnetic resonance imaging (MRI) and a battery of clinician- and subject-reported measurements.
Study Design: FIG. 2 depicts the study Design and Treatment Schema associated with this procedure. This was a multicenter, randomized, double-blind, placebo-controlled study in which approximately 120 subjects received either up to 50 mg SDI, up to 100 mg SDI, or placebo in a 1:1:1 ratio (5 mg/mL:10 mg/mL:placebo) as indicated below, to evaluate the safety and efficacy of fixed concentrations of SDI given in up to 50 0.2-mL injections in up to 6 treatment sessions. No subject received more than 10 mL in any treatment session, nor did any subject undergo more than 6 treatment sessions. The initial 30 subjects were enrolled in a 2:2:1 ratio (i.e., 12, 12 and 6 subjects per group, for the two SDI groups and placebo, respectively) and the remaining subjects were randomized to balance the enrollment (approximately 28, 28, and […] per group for the two SDI groups and placebo, respectively).
To measure changes in SMF volume and thickness, MRI acquisitions were repeated prior to each treatment session and post-treatment (4 and 12 weeks after the last treatment cycle). Before subjects completed each MRI visit, the MRI images were evaluated for acceptability.
Subjects who successfully completed screening and baseline evaluations received up to 50 injections (0.2 mL each for a maximum volume of 10 mL) per treatment session, depending upon size and configuration of the SMF. Treatment was given at 4-week (±5 days) intervals. Study material injection sites were positioned using a 1.0 cm grid, which is designed to achieve an appropriate distribution of injections across the submental area.
Study Material, Dose, and Route of Administration: SDI (sodium deoxycholate injection) was provided in a concentration of 5 mg/mL (0.5%) and 10 mg/mL (1.0%) in 10 mM sodium phosphate, 0.9% (weight per volume [w/v]) sodium chloride, and 0.9% (w/v) benzyl alcohol in water for injection (WFI). Each vial (for single use only) contained at least 2.0 mL of accessible material, accessed by means of sterile syringe and needle through a rubber stopper closure.
Evaluation of Efficacy: The effects of 5 mg/mL SDI and 10 mg/mL SDI transcutaneous injections in the submental area were evaluated relative to placebo by measuring the following: (1) the reduction of fat using Clinician-Reported Submental Fat Rating Scale (CR-SMFRS), Patient-Reported Submental Fat Rating Scale (PR-SMFRS), and Patient-Reported Submental Fat Impact Scale (PR-SMFIS); (2) the volume of SMF using MRI; and (3) the thickness of SMF using MM. The efficacy evaluation criteria included: Clinician-Reported Submental Fat Rating Scale (CR-SMFRS), Patient-Reported Submental Fat Rating Scale (PR-SMFRS), Patient-Reported Submental Fat Impact Scale (PR-SMFIS) scores, and Magnetic resonance imaging (MM).
Other Evaluations: The effects of 5 mg/mL SDI and 10 mg/mL SDI transcutaneous injections in the submental area, relative to placebo, for changes in skin laxity (SLRS), Subject Self Rating Scale (SSRS), and subject-reported outcome measures (Self-Ratings of Attractiveness, Derriford Appearance Scale [DAS], Body Image Quality of Life Inventory [BIQLI]), other Subject-Reported Questions, and Post-treatment Questions) were evaluated. Measurements of the thickness of fat in the submental area were made using calipers. Photographs were taken to document treatment effects. […]

## C[C@H](CCC(=O)O)[C@H]1CC[C@H]2[C@@H]3CC[C@@H]4C[C@H](O)CC[C@]4(C)[C@H]3C[C@H](O)[C@]12C [deoxycholic acid]
[1]; 1.0% vs 0.5%, single 2.5 mL injection
  fat pad necrosis relative to 0.5%: approximately 2.5 times
[2]; 2.0%
  histological changes: marked necrosis, resulting in lipid lake formation and vessel damage
[2]; 4.0%
  histological changes: marked necrosis, resulting in lipid lake formation and vessel damage

## C[C@H](CCC(=O)[O-])[C@H]1CC[C@H]2[C@@H]3CC[C@@H]4C[C@H](O)CC[C@]4(C)[C@H]3C[C@H](O)[C@]12C.[Na+] [sodium deoxycholate]
[3]
  minimal concentration at which micelle formation was observed: 0.25 % w/v
[1]; 0.5% w/v
  effectiveness: effective
[1]; 1.0% w/v
  effectiveness: effective
[1]; doses at and below 0.25%
  effect compared with vehicle: no different than vehicle
[4]; 0.5% w/v
  time points with statistically significant change from baseline in SMF rating scale score compared to placebo: weeks 8, 12, 16 and 24
  change from baseline at week 16 compared to placebo in SMF rating scale score: significance (ANCOVA): statistically significant
[4]; 1.0% w/v
  time points with statistically significant improvement in SMF rating scale score compared to placebo: weeks 12, 16 and 24
[4]; 1% w/v
  change from baseline at week 16 compared to placebo in SMF rating scale score: significance (ANCOVA): statistically significant
[4]; 2.0% vs 1.0% or 0.5%
  relative effectiveness by visual assessment methods: less effective than ATX-101 1.0% or 0.5%
[4]; 2% w/v
  time points with statistically significant improvement in SMF rating scale score compared to placebo: only at week 24
  change from baseline at week 16 compared to placebo in SMF rating scale score: significance (ANCOVA): not
[5]; 0.5% vs 2.0% and 4.0%
  safety profile across studies: better safety profile than the higher concentrations
[5]; 1.0% vs 2.0% and 4.0%
  safety profile across studies: better safety profile than the higher concentrations
[5]; all concentrations in clinical studies
  safety and tolerability: safe and well tolerated
[5]; clinical studies, not systemic
  adverse events: local, transient injection site reactions of mild to moderate intensity
[6]
  pharmacokinetics (linearity): linear
  time of peak plasma concentrations: 15 to 30 min
  time to return to endogenous deoxycholate levels after dosing: ≤ 24 h
[7]; 0.5% [0.2 mL/1.0 cm]
  SSRS scores: significantly better than placebo
  change in SMFRS score at Week 16: significantly better than placebo
[7]; 1.0% [0.2 mL/1.0 cm]
  SSRS scores: significantly better than placebo
  change in SMFRS score at Week 16: significantly better than placebo
[8]; 0.5%
  CR-SMFRS change from baseline (FIG. 4): marked reduction of submental fat as compared with placebo
  SMF thickness and volume by MRI: statistically significant reduction
  SSRS, patient impact scores, patient impact questionnaire, improvement in appearance of the chin and satisfaction: statistically significant changes
  number of patients having at least 1-point improvement (CR-SMFRS) vs placebo group: greater
[8]; 1.0%
  CR-SMFRS change from baseline (FIG. 4): marked reduction of submental fat as compared with placebo
  SMF thickness and volume by MRI: statistically significant reduction
  SSRS, patient impact scores, patient impact questionnaire, improvement in appearance of the chin and satisfaction: statistically significant changes
  statistical significance of CR-SMFRS reduction vs placebo: statistically significant at most time points
  number of patients having at least 1-point improvement (CR-SMFRS) vs placebo group: greater
[8]; 1.0% and 0.5%
  dose response by CR-SMFRS: good dose response
  dose response by PR-SMFRS: good dose response
[8]; 1.0% vs 0.5%
  SMF thickness and volume by MRI, compared with 0.5%: better dose response and greater reduction
  relative effectiveness by CR-SMFRS: more effective than 0.5%
  relative effectiveness by PR-SMFRS: more effective than 0.5%
[8]; 1.0%, week 16 and week 32
  1-grade reduction, CR-SMFRS: Statistically significance was obtained
  1-grade reduction, PR-SMFRS: Statistically significance was obtained
[8]; 1.0%, week 32
  2-grade reduction, PR-SMFRS: Statistically significance was obtained
[8]; ATX-101 treatments
  CR-SMFRS with BMI as a standard (FIG. 18): significant submental fat reduction
[8]; FIGS. 20 and 21
  CR-SMFRS/body weight ratio: decreased significantly
